Reference: patent US20080279775A1, “Benztropinamine Analogs as Dopamine Uptake Inhibitors” (priority 2005, published 2008)
“And” between values parts separate entries of the source, which are not always exact repeats. Equal values may be shown once. “Also recorded” adds a separate entry of the source. Read-outs that look alike come from different tables or passages of the source.

Experiments:
DAT = molecular target: T1, DAT (Rattus norvegicus, UniProt P23977); assay: Dopamine transporter binding assay, displacement of [3H]WIN 35,428; conditions: for Ki: rat caudate-putamen membranes, read-out: DAT [3H]WIN 35,428 Ki ± SEM
T1 construct: their brains removed to an ice-cooled dish for dissection of the caudate putamen; from tissue; host or cells: rat caudate putamen membranes (fresh homogenates)
T1 sequence (P23977 whole entry): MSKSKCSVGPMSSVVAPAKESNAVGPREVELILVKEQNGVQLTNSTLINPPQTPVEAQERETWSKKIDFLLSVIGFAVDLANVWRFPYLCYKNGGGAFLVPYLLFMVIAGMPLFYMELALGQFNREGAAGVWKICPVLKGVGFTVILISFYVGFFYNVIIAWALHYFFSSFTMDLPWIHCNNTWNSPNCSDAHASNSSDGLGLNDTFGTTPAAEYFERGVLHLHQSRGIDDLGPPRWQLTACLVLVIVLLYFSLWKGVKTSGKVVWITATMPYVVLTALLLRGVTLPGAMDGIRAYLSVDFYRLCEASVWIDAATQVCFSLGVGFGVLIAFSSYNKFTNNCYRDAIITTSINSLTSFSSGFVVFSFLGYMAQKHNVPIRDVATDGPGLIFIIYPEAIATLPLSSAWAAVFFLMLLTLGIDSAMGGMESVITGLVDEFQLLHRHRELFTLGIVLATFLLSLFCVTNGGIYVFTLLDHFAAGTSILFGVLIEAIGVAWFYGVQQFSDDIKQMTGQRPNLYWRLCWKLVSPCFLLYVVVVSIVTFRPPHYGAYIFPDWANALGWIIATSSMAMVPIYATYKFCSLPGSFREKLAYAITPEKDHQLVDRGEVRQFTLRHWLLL

SERT = molecular target: T2, SERT (Rattus norvegicus, UniProt P31652); assay: [3H]Citalopram binding assay; conditions: for Binding selectivity SERT/DAT: Ki ratio
T2 construct: Membranes from frozen rat midbrain were homogenized; from tissue; host or cells: frozen rat midbrain membranes
T2 sequence (P31652 whole entry): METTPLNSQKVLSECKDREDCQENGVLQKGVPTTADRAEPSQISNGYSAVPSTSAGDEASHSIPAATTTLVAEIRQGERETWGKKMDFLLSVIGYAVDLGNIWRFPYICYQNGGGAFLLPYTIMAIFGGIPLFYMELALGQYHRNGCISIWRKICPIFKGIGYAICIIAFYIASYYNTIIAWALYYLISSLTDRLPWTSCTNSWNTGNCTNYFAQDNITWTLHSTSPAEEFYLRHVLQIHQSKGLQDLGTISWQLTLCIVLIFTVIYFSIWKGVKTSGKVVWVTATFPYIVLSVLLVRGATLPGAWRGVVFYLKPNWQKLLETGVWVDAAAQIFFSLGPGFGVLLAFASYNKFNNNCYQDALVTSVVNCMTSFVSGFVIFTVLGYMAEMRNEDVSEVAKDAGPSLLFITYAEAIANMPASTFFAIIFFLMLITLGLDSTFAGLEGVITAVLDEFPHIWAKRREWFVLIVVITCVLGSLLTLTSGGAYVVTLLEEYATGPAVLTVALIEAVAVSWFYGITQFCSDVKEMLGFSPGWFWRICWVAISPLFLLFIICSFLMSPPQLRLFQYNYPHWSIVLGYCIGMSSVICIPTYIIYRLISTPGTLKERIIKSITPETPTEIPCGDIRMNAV
Description: (§1) In order to understand the neurochemical and behavioral properties of the compounds of the present invention, exemplary benztropinamine analogs were evaluated for displacement of [^3H]WIN 35,428 (2β-carbomethoxy-3β-(4-fluorophenyl)tropane) binding to the DAT in rat caudate-putamen. These benztropinamine analogs were also evaluated for displacement of radiolabeled ligand binding at the serotonin (SERT) and norepinephrine (NET) transporters as well as the muscarinic m1 receptor (M1), Table 1, infra. The NET over DAT selectivity refers to the Ki ratio. When the Ki ratio is greater than 1, the compound is DAT selective. The DAT selectivities of the analogs over these binding sites are depicted in Table 2.
[^3H]Citalopram Binding Assay. Membranes from frozen rat midbrain were homogenized in 20 volumes (w/v) of 50 mM Tris containing 120 mM NaCl and 5 mM KCl (pH 7.4 at 25° C.), using a Brinkman Polytron (at setting 6 for 20 sec). The tissue was centrifuged at 20,000×g for 10 min at 4° C. The resulting pellet was resuspended in buffer and recentrifuged. The final pellet was resuspended in cold buffer to a concentration of 15 mg/ml (original wet weight). Ligand binding experiments were conducted in assay tubes containing 0.5 ml of buffer, 1.4 nM [^3H]citalopram (New England Nuclear, Boston Mass.), and 1.5 mg midbrain tissue. The reaction was started with the addition of the tissue and the tubes were incubated for 60 min at 25° C. (room temperature). The incubation was terminated by rapid filtration through Whatman GF/B filters (presoaked in 0.3% polyethylenimine in water) using a Brandel Cell Harvester (Brandel Instruments Gaithersburg, Md.). The filters were washed twice with 5 ml cold buffer, transferred to scintillation vials to which Beckman Ready Safe was added. Nonspecific binding was determined using 10 μM fluoxetine (RBI, Natick, Mass.). Data were analyzed using GraphPad Prism software (San Diego, Calif.).

NET [1] = molecular target: NET (Rattus norvegicus, UniProt Q63380); format: binding; conditions: lower affinity than 2a
Sequence of NET (Rattus norvegicus, UniProt Q63380) (Q63380 1-617): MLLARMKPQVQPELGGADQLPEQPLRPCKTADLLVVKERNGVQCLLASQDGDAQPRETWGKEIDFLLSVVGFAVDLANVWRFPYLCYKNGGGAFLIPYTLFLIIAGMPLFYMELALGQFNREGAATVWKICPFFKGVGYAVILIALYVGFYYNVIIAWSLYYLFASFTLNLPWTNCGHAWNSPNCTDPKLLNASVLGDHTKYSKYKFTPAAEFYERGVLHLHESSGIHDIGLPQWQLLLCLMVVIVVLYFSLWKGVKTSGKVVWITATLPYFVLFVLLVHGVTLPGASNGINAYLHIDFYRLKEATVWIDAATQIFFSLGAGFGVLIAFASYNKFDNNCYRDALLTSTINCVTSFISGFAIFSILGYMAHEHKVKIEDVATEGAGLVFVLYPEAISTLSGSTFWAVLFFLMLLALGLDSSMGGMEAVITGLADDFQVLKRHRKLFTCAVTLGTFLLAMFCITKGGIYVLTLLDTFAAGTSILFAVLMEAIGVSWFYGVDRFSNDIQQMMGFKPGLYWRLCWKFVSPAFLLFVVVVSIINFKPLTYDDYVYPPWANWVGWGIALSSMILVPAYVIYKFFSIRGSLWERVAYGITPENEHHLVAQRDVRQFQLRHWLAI
Description: as §1
(§2) [^3H]Nisoxetine Binding Assay. Membranes from frozen frontal cortex dissected from male Sprague-Dawley rats (Taconic Labs, Germantown, N.Y.) were homogenized in 20 volumes (w/v) of 50 mM Tris containing 120 mM NaCl and 5 mM KCl (pH 7.4 at 25° C.), using a Brinkman Polytron (at setting 6 for 20 sec). The tissue was centrifuged at 50,000×g for 10 min at 4° C. The resulting pellet was resuspended in buffer and recentrifuged. The final pellet was resuspended in cold buffer to a concentration of 80 mg/ml (original wet weight). Ligand binding experiments were conducted in assay tubes containing 0.5 ml buffer, 0.5 nM [3H]nisoxetine (New England Nuclear, Boston, Mass.), and 8 mg frontal cortex tissue. The reaction was started with the addition of the tissue and the tubes were incubated for 60 min at 0-4° C. The incubation was terminated by rapid filtration through Whatman GF/B filters, presoaked in 0.05% polyethylenimine, using a Brandel Cell Harvester (Brandel Instruments Gaithersburg, Md.). The filters were washed twice with 5 ml cold buffer, transferred to scintillation vials to which Beckman Ready Safe was added. Nonspecific binding was determined using 1 μM desipramine. Data were analyzed using GraphPad Prism software (San Diego, Calif.).

NET [2] = format: binding, rat; conditions: Ki ratio
Description: as §1, §2

muscarinic M1 receptor = molecular target: T3, muscarinic M1 receptor (Rattus norvegicus, UniProt P08482); assay: [3H]Pirenzepine binding assay; conditions: for Binding selectivity M1/DAT: Ki ratio
T3 construct: Membranes from frozen rat brains excluding cerebellum were thawed in ice-cold buffer; from tissue; host or cells: frozen rat brain (excluding cerebellum) membranes
T3 sequence (P08482 1-460): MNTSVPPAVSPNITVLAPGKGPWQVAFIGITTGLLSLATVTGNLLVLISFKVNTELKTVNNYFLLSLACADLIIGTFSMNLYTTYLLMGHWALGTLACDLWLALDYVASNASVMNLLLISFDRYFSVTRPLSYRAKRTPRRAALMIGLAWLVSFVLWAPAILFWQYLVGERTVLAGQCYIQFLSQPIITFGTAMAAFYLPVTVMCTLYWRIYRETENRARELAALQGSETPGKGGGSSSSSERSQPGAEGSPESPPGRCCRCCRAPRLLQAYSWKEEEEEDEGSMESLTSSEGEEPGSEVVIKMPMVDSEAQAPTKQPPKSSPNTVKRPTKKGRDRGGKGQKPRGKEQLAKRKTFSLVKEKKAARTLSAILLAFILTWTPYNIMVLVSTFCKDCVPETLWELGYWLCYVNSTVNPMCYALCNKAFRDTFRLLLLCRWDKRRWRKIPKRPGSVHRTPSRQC
Description: as §1, with “When the Ki ratio is greater than 1, the compound is DAT selective.” left out
[…] Binding Assay. Membranes from frozen rat brains excluding cerebellum were thawed in ice-cold buffer (10 mM Tris-HCl, 320 mM sucrose, pH 7.4) and homogenized with a Brinkman polytron in a volume of 10 ml/gm of tissue. The homogenate was centrifuged at 1,000×g for 10 min at 4° C. The resulting supernatant was then centrifuged at 10,000×g for 20 min at 4° C. The resulting pellet was resuspended in a volume of 200 mg/ml in 10 mM Tris buffer (pH 7.4). Ligand binding assays were conducted in tubes containing 0.5 ml of buffer (10 mM Tris-HCl, 5 mM MgCl2), 3 nM [^3H]pirenzepine (New England Nuclear, Boston, Mass.), and 20 mg of brain tissue. The reaction was started with the addition of the tissue and the tubes were incubated for 60 min in a 37° C. water bath. The incubation was terminated by the addition of 5 ml of ice-cold buffer (10 mM Tris-HCl, pH 7.4) and rapid filtration through Whatman GF/B glass fiber filter paper (presoaked in 0.5% polyethylenimine) using a Brandel Cell Harvester (Brandel Instruments, Gaithersburg, Md.). The filters were washed twice with 5 ml cold buffer, and transferred to scintillation vials to which absolute ethanol and Beckman Ready Safe was added. Quinuclidinyl benzilate (QNB), 100 μM final concentration, was used to determine non-specific binding. Data were analyzed by using GraphPad Prism software (San Diego, Calif.).

mice = assay: Locomotor stimulant effects (activity counts per minute); format: in vivo
Description: In contrast, 2m produced much more modest increases in activity of around 100 counts per min.

rats = assay: Cocaine drug discrimination (cocaine-like subjective effects); format: in vivo; conditions: rats trained to discriminate cocaine from vehicle, over the dose range tested, FIGS. 3A and 3B
Description: FIG. 3A depicts % drug responding as a function of dose; FIG. 3B depicts % control response rate as a function of dose.
Rats were trained to emit one response after an injection of cocaine and a different response after injection of vehicle. Once the subjects were well trained, they act as detectors of cocaine-like subjective effects.

Structure (SMILES)	Reduction of binding affinity at the DAT compared to 2a (DAT; lower affinity than 2a)	Ki (DAT)	Ki (SERT)	Binding selectivity SERT/DAT (SERT)	Lower binding affinity at the SERT compared to 2a (SERT; lower affinity than 2a)	Lower binding affinity at the NET compared to 2a (NET [1])	Binding selectivity NET/DAT (NET [2])	Ki (muscarinic M1 receptor)	Binding selectivity M1/DAT (muscarinic M1 receptor)	Lower binding affinity at the M1 receptor compared to 2a (muscarinic M1 receptor; lower affinity than 2a)	Ki (SERT; rat midbrain membranes, read-out: SERT [3H]citalopram Ki ± SEM)	Ki (muscarinic M1 receptor; rat brain membranes excluding cerebellum, read-out: M1 [3H]pirenzepine Ki ± SEM)	Cocaine-like locomotor stimulant effects (mice)	Locomotor activity (mice; injected, at the most effective dose, FIG. 2)	Cocaine-like subjective effects (substitution for cocaine) (rats)
CN(C(c1ccc(F)cc1)c1ccc(F)cc1)[C@H]1C[C@H]2CC[C@@H](C1)N2C [Compound 2c]	11 fold	123 ± 15.5 nM	17200 ± 2460 nM	140	about 2 fold	about 5 fold	68	18.6 ± 2.48 nM	0.2	about 2 fold					
O=C(CCN1[C@@H]2CC[C@H]1C[C@@H](NC(c1ccc(F)cc1)c1ccc(F)cc1)C2)Nc1ccccc1 [Compound 2m]		4.61 nM		132			535 and 536		551		608 ± 41 nM	2540 ± 124 nM	lacks cocaine-like locomotor stimulant effects	around 100 counts per min	lacks cocaine-like subjective effects; also recorded: did not substitute for cocaine
